Data from article PMC12670405, “Second-Generation AURKA-Targeting PROTACs: Structural Optimization toward in Vivo Degradation in Neuroblastoma” (Journal of Medicinal Chemistry, 2025).

Assays:
Test in all cases: KINOMEscan scanMAX
Type in all cases: binding
FER = target: T1, FER (Homo sapiens, UniProt P16591); conditions: read-out: Percent Control
T1 construct: purchased Eurofins Discovery (DiscoverX KINOMEscan scanMAX)
Description: (§1) The kinome-wide binding assay was performed by Eurofins Discovery using the scanMAX screening platform. More information can be found on the Eurofins Discovery Web site.

TLK2 = target: T2, TLK2 (Homo sapiens, UniProt Q86UE8); conditions: read-out: Percent Control
T2 construct: purchased Eurofins Discovery (DiscoverX KINOMEscan scanMAX)
Description: as §1

YES = target: T3, YES (Homo sapiens, UniProt P07947); conditions: read-out: Percent Control
T3 construct: purchased Eurofins Discovery (DiscoverX KINOMEscan scanMAX)
Description: as §1

EGFR(S752-I759del) = target: T4, EGFR(S752-I759del) (Homo sapiens, UniProt P00533, DEL752-759); conditions: read-out: Percent Control
T4 construct: purchased Eurofins Discovery (DiscoverX KINOMEscan scanMAX)
T4 sequence (P00533 with tags, fused parts or gaps DEL752-759 limits assumed): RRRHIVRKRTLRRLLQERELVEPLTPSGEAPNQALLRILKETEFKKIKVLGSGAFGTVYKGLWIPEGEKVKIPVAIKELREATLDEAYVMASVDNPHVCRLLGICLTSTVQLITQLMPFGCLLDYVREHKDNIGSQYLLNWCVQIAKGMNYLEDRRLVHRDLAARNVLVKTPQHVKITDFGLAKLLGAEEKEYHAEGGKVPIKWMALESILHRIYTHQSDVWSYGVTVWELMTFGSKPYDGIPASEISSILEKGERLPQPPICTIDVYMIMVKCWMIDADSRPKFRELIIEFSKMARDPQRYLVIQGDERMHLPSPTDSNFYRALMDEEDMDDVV
Description: as §1

IKK-epsilon = target: T5, IKK-epsilon (Homo sapiens, UniProt Q14164); conditions: read-out: Percent Control
T5 construct: purchased Eurofins Discovery (DiscoverX KINOMEscan scanMAX)
Description: as §1

[1] = target: T6, ABL1(H396P)-phosphorylated (Homo sapiens, UniProt P00519, H396P); conditions: read-out: Percent Control
T6 construct: purchased Eurofins Discovery (DiscoverX KINOMEscan scanMAX)
Description: as §1

MLK2 = target: T7, MLK2 (Homo sapiens, UniProt Q02779); conditions: read-out: Percent Control
T7 construct: purchased Eurofins Discovery (DiscoverX KINOMEscan scanMAX)
Description: as §1

FLT1 = target: T8, FLT1 (Homo sapiens, UniProt P17948); conditions: read-out: Percent Control
T8 construct: purchased Eurofins Discovery (DiscoverX KINOMEscan scanMAX)
Description: as §1

CSNK1A1 = target: T9, CSNK1A1 (Homo sapiens, UniProt P48729); conditions: read-out: Percent Control
T9 construct: purchased Eurofins Discovery (DiscoverX KINOMEscan scanMAX)
Description: as §1

[2] = target: T10, ABL1(F317I)-nonphosphorylated (Homo sapiens, UniProt P00519, F317I); conditions: read-out: Percent Control
T10 construct: purchased Eurofins Discovery (DiscoverX KINOMEscan scanMAX)
Description: as §1

[3] = target: T11, RPS6KA5(Kin.Dom.1-N-terminal) (Homo sapiens, UniProt O75582); conditions: read-out: Percent Control
T11 construct: RPS6KA5(Kin.Dom.1-N-terminal); purchased Eurofins Discovery (DiscoverX KINOMEscan scanMAX)
Description: as §1

EGFR(G719S) = target: T12, EGFR(G719S) (Homo sapiens, UniProt P00533, G719S); conditions: read-out: Percent Control
T12 construct: purchased Eurofins Discovery (DiscoverX KINOMEscan scanMAX)
T12 sequence (P00533 25-1210 G719S): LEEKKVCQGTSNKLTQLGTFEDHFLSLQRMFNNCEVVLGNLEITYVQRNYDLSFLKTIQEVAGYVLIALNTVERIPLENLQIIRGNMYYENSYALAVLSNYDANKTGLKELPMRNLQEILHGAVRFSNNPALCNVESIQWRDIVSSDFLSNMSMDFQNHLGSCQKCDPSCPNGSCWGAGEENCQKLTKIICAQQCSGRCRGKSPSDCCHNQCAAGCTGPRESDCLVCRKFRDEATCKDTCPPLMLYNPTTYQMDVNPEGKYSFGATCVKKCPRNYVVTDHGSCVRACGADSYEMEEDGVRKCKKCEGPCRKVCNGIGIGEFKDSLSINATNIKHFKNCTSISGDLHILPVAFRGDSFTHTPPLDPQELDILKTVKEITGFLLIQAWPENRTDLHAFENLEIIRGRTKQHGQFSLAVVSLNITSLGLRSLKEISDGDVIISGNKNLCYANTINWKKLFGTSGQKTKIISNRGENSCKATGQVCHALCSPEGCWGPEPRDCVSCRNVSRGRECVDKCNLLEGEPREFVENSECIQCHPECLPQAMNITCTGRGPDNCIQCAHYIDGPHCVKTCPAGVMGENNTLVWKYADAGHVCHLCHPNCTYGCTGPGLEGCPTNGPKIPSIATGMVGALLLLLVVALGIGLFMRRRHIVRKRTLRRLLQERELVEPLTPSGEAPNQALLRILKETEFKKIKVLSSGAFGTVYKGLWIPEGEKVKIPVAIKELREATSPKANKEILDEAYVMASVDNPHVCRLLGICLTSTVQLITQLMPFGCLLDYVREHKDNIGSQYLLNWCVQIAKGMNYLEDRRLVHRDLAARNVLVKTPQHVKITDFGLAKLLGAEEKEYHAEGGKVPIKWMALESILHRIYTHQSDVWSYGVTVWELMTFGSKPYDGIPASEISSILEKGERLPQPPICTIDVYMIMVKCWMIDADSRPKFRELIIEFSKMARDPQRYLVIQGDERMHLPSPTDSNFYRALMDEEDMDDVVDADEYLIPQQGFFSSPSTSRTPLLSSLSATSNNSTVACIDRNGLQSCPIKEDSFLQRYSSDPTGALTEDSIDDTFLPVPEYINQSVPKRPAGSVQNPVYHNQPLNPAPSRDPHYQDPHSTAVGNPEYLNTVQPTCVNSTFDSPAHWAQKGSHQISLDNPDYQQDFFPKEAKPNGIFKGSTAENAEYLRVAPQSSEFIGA
Description: as §1

RIPK5 = target: T13, RIPK5 (Homo sapiens, UniProt Q6XUX3); conditions: read-out: Percent Control
T13 construct: purchased Eurofins Discovery (DiscoverX KINOMEscan scanMAX)
T13 sequence (Q6XUX3 whole entry): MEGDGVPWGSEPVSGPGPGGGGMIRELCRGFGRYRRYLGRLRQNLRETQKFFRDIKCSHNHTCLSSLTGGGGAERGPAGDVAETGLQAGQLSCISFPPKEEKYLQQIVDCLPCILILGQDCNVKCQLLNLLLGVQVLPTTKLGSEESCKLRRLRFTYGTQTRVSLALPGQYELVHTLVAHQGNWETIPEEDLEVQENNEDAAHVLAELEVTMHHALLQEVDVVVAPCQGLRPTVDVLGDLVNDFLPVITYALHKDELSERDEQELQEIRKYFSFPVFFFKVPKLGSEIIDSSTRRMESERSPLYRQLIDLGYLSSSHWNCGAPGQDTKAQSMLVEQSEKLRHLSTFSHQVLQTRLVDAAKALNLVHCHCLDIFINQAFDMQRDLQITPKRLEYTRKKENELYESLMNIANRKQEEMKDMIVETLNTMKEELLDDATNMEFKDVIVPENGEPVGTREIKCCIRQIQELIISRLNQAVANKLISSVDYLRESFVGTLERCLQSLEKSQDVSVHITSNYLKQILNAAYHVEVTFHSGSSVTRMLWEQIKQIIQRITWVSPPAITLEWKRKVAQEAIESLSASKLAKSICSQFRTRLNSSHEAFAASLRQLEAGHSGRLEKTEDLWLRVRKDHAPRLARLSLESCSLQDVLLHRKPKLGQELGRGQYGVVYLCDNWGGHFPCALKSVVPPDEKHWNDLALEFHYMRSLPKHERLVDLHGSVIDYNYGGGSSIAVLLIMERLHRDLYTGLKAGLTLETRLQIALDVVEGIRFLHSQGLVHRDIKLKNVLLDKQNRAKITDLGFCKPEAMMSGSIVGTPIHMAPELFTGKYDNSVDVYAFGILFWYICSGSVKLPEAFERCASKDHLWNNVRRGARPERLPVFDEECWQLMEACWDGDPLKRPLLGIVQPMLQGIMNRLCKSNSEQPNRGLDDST
Description: as §1

GRK7 = target: T14, GRK7 (Homo sapiens, UniProt Q8WTQ7); conditions: read-out: Percent Control
T14 construct: purchased Eurofins Discovery (DiscoverX KINOMEscan scanMAX)
T14 sequence (Q8WTQ7 whole entry): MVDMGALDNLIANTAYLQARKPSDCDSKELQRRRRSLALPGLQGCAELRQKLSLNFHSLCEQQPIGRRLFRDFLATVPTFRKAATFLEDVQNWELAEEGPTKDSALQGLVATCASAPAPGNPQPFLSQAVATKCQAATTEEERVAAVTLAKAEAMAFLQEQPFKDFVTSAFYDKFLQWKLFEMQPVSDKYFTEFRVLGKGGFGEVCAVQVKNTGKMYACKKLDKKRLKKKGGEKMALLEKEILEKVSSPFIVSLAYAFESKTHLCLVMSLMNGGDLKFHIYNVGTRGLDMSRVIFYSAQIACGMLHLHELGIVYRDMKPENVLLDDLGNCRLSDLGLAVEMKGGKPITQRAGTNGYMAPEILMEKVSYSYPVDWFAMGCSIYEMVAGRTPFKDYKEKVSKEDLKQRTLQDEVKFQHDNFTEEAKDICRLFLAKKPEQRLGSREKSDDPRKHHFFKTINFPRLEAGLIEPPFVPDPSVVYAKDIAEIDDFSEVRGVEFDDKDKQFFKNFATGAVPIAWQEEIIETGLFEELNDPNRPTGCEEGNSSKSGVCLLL
Description: as §1

MKK7 = target: T15, MKK7 (Homo sapiens, UniProt O14733); conditions: read-out: Percent Control
T15 construct: purchased Eurofins Discovery (DiscoverX KINOMEscan scanMAX)
Description: as §1

NIM1 = target: T16, NIM1 (Homo sapiens, UniProt Q8IY84); conditions: read-out: Percent Control
T16 construct: purchased Eurofins Discovery (DiscoverX KINOMEscan scanMAX)
Description: as §1

YANK1 = target: T17, YANK1 (Homo sapiens, UniProt Q8WU08); conditions: read-out: Percent Control
T17 construct: purchased Eurofins Discovery (DiscoverX KINOMEscan scanMAX)
Description: as §1

CAMK2A = target: T18, CAMK2A (Homo sapiens, UniProt Q9UQM7); conditions: read-out: Percent Control
T18 construct: purchased Eurofins Discovery (DiscoverX KINOMEscan scanMAX)
T18 sequence (Q9UQM7 whole entry): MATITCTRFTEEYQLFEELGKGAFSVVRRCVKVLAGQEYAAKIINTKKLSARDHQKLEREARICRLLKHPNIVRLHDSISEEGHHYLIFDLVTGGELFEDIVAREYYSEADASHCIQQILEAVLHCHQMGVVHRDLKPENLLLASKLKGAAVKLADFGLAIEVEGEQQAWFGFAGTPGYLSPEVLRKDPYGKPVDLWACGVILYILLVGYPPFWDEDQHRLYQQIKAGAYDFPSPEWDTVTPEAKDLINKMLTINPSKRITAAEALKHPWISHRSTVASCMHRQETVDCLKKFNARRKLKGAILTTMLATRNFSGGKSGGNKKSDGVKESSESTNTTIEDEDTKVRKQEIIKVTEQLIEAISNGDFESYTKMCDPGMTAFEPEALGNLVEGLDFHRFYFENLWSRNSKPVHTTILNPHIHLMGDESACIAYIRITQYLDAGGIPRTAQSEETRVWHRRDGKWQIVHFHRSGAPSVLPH
Description: as §1

CDKL3 = target: T19, CDKL3 (Homo sapiens, UniProt Q8IVW4); conditions: read-out: Percent Control
T19 construct: purchased Eurofins Discovery (DiscoverX KINOMEscan scanMAX)
Description: as §1

PIKFYVE = target: T20, PIKFYVE (Homo sapiens, UniProt Q9Y2I7); conditions: read-out: Percent Control
T20 construct: purchased Eurofins Discovery (DiscoverX KINOMEscan scanMAX)
Description: as §1

DCAMKL2 = target: T21, DCAMKL2 (Homo sapiens, UniProt Q8N568); conditions: read-out: Percent Control
T21 construct: purchased Eurofins Discovery (DiscoverX KINOMEscan scanMAX)
Description: as §1

CLK2 = target: T22, CLK2 (Homo sapiens, UniProt P49760); conditions: read-out: Percent Control
T22 construct: purchased Eurofins Discovery (DiscoverX KINOMEscan scanMAX)
Description: as §1

STK39 = target: T23, STK39 (Homo sapiens, UniProt Q9UEW8); conditions: read-out: Percent Control
T23 construct: purchased Eurofins Discovery (DiscoverX KINOMEscan scanMAX)
Description: as §1

MEK2 = target: T24, MEK2 (Homo sapiens, UniProt P36507); conditions: read-out: Percent Control
T24 construct: purchased Eurofins Discovery (DiscoverX KINOMEscan scanMAX)
Description: as §1

GRK3 = target: T25, GRK3 (Homo sapiens, UniProt P35626); conditions: read-out: Percent Control
T25 construct: purchased Eurofins Discovery (DiscoverX KINOMEscan scanMAX)
T25 sequence (P35626 whole entry): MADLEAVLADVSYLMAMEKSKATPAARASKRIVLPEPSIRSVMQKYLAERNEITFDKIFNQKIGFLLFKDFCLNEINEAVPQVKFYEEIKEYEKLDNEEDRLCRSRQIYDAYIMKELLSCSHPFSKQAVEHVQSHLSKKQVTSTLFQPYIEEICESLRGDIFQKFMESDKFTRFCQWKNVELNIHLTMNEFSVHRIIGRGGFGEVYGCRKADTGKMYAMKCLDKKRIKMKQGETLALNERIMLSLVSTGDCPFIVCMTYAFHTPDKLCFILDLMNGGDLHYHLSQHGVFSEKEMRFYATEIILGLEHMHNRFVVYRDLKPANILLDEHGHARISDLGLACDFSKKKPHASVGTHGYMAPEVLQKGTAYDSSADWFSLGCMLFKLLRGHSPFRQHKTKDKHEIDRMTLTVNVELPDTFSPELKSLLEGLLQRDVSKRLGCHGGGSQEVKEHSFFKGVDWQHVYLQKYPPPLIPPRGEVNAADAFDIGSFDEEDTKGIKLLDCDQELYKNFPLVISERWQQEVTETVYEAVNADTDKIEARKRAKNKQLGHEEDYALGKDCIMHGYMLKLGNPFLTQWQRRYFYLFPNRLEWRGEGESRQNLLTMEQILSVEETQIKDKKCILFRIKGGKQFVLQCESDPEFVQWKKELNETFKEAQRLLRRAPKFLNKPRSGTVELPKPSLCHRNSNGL
Description: as §1

BMX = target: T26, BMX (Homo sapiens, UniProt P51813); conditions: read-out: Percent Control
T26 construct: purchased Eurofins Discovery (DiscoverX KINOMEscan scanMAX)
Description: as §1

MET = target: T27, MET (Homo sapiens, UniProt P08581); conditions: read-out: Percent Control
T27 construct: purchased Eurofins Discovery (DiscoverX KINOMEscan scanMAX)
Description: as §1

FLT3(ITD,D835V) = test system: FLT3(ITD,D835V)
Description: as §1

TGFBR1 = target: T28, TGFBR1 (Homo sapiens, UniProt P36897); conditions: read-out: Percent Control
T28 construct: purchased Eurofins Discovery (DiscoverX KINOMEscan scanMAX)
T28 sequence (P36897 34-503): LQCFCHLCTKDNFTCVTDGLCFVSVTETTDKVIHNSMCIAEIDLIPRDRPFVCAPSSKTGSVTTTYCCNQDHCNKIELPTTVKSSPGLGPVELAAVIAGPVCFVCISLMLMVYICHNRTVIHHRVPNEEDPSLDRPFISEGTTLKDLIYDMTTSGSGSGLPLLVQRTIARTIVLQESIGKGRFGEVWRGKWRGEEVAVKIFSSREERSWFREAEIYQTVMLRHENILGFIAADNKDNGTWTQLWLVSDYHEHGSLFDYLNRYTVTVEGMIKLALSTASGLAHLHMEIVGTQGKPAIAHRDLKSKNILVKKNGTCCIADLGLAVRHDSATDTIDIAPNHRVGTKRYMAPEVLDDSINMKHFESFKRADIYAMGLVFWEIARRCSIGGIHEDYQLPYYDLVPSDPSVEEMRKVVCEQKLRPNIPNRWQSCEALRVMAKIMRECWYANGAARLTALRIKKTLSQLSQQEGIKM
Description: as §1

PDPK1 = target: T29, PDPK1 (Homo sapiens, UniProt O15530); conditions: read-out: Percent Control
T29 construct: purchased Eurofins Discovery (DiscoverX KINOMEscan scanMAX)
Description: as §1

BMPR2 = target: T30, BMPR2 (Homo sapiens, UniProt Q13873); conditions: read-out: Percent Control
T30 construct: purchased Eurofins Discovery (DiscoverX KINOMEscan scanMAX)
Description: as §1

FGFR1 = target: T31, FGFR1 (Homo sapiens, UniProt P11362); conditions: read-out: Percent Control
T31 construct: purchased Eurofins Discovery (DiscoverX KINOMEscan scanMAX)
Description: as §1

[4] = target: T32, RPS6KA4(Kin.Dom.2-C-terminal) (Homo sapiens, UniProt O75676); conditions: read-out: Percent Control
T32 construct: RPS6KA4(Kin.Dom.2-C-terminal); purchased Eurofins Discovery (DiscoverX KINOMEscan scanMAX)
T32 sequence (O75676 372-772 limits assumed): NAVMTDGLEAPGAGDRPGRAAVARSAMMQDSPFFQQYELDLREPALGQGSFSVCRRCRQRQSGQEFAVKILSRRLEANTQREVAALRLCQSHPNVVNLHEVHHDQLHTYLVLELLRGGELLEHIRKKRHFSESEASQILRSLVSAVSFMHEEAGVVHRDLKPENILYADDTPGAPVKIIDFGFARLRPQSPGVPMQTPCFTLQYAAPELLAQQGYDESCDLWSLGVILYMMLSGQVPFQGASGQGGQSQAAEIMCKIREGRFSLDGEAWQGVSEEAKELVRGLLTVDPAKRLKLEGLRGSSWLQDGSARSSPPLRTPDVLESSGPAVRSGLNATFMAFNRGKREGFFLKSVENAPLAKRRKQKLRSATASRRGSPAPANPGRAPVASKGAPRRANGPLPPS
Description: as §1

Cc1cc(Nc2ccc(F)c(CC3(C(=O)N4CCC(F)(CN5CCN(c6ccc(N7CCC(=O)NC7=O)cn6)CC5)CC4)CCN(Cc4cccc(Cl)c4F)CC3)n2)n[nH]1 [SK5527]
remaining binding at 0.1 µM (FER; 100 nM): 84% | remaining binding at 1 µM (FER; 1000 nM): 100% | remaining binding at 0.1 µM (TLK2; 100 nM): 100% | remaining binding at 1 µM (TLK2; 1000 nM): 94% | remaining binding at 0.1 µM (YES; 100 nM): 73% | remaining binding at 1 µM (YES; 1000 nM): 70% | remaining binding at 0.1 µM (EGFR(S752-I759del); 100 nM): 98% | remaining binding at 1 µM (EGFR(S752-I759del); 1000 nM): 100% | remaining binding at 0.1 µM (IKK-epsilon; 100 nM): 75% | remaining binding at 1 µM (IKK-epsilon; 1000 nM): 67% | remaining binding at 0.1 µM ([1]; 100 nM): 88% | remaining binding at 1 µM ([1]; 1000 nM): 70% | remaining binding at 0.1 µM (MLK2; 100 nM): 100% | remaining binding at 1 µM (MLK2; 1000 nM): 100% | remaining binding at 0.1 µM (FLT1; 100 nM): 91% | remaining binding at 1 µM (FLT1; 1000 nM): 86% | remaining binding at 0.1 µM (CSNK1A1; 100 nM): 100% | remaining binding at 1 µM (CSNK1A1; 1000 nM): 100% | remaining binding at 0.1 µM ([2]; 100 nM): 84% | remaining binding at 1 µM ([2]; 1000 nM): 74% | remaining binding at 0.1 µM ([3]; 100 nM): 95% | remaining binding at 1 µM ([3]; 1000 nM): 100% | remaining binding at 0.1 µM (EGFR(G719S); 100 nM): 94% | remaining binding at 1 µM (EGFR(G719S); 1000 nM): 100% | remaining binding at 0.1 µM (RIPK5; 100 nM): 97% | remaining binding at 1 µM (RIPK5; 1000 nM): 81% | remaining binding at 0.1 µM (GRK7; 100 nM): 100% | remaining binding at 1 µM (GRK7; 1000 nM): 56% | remaining binding at 0.1 µM (MKK7; 100 nM): 100% | remaining binding at 1 µM (MKK7; 1000 nM): 54% | remaining binding at 0.1 µM (NIM1; 100 nM): 58% | remaining binding at 1 µM (NIM1; 1000 nM): 76% | remaining binding at 0.1 µM (YANK1; 100 nM): 100% | remaining binding at 1 µM (YANK1; 1000 nM): 77% | remaining binding at 0.1 µM (CAMK2A; 100 nM): 98% | remaining binding at 1 µM (CAMK2A; 1000 nM): 100% | remaining binding at 0.1 µM (CDKL3; 100 nM): 100% | remaining binding at 1 µM (CDKL3; 1000 nM): 83% | remaining binding at 0.1 µM (PIKFYVE; 100 nM): 100% | remaining binding at 1 µM (PIKFYVE; 1000 nM): 100% | remaining binding at 0.1 µM (DCAMKL2; 100 nM): 93% | remaining binding at 1 µM (DCAMKL2; 1000 nM): 91% | remaining binding at 0.1 µM (CLK2; 100 nM): 88% | remaining binding at 1 µM (CLK2; 1000 nM): 93% | remaining binding at 0.1 µM (STK39; 100 nM): 100% | remaining binding at 1 µM (STK39; 1000 nM): 85% | remaining binding at 0.1 µM (MEK2; 100 nM): 80% | remaining binding at 1 µM (MEK2; 1000 nM): 81% | remaining binding at 0.1 µM (GRK3; 100 nM): 100% | remaining binding at 1 µM (GRK3; 1000 nM): 100% | remaining binding at 0.1 µM (BMX; 100 nM): 100% | remaining binding at 1 µM (BMX; 1000 nM): 73% | remaining binding at 0.1 µM (MET; 100 nM): 94% | remaining binding at 1 µM (MET; 1000 nM): 81% | Percent Control (FLT3(ITD,D835V); 100 nM): 79% | Percent Control (FLT3(ITD,D835V); 1000 nM): 59% | remaining binding at 0.1 µM (TGFBR1; 100 nM): 100% | remaining binding at 1 µM (TGFBR1; 1000 nM): 100% | remaining binding at 0.1 µM (PDPK1; 100 nM): 89% | remaining binding at 1 µM (PDPK1; 1000 nM): 100% | remaining binding at 0.1 µM (BMPR2; 100 nM): 98% | remaining binding at 1 µM (BMPR2; 1000 nM): 50% | remaining binding at 0.1 µM (FGFR1; 100 nM): 100% | remaining binding at 1 µM (FGFR1; 1000 nM): 92% | remaining binding at 0.1 µM ([4]; 100 nM): 85% | remaining binding at 1 µM ([4]; 1000 nM): 77%
